Experimental data as given in patent US20140221210A1, “ACYL-HOMOSERINE LACTONE DERIVATIVES FOR IMPROVING PLANT YIELD” (priority 2011, published 2014).

Tests used:
[1] = test system: Arabidopsis root; settings: literature report (Planta, 2008); cited from earlier work
[2] = test system: Soybean seeds; test: Germination test on soybean seeds; type: in vivo; settings: agar plates, 7.5° C. dark, 5 replicates of 20 seeds
Description: (§1) The test is performed under lab conditions. Soybean and maize seeds, treated with the active ingredient solved in DMSO and diluted with water to the desired dosages, are placed on sterile agar plates (0.5% agar in water). Covered plates are incubated at 7.5° C. and 10° C. respectively in the dark. Wheat seeds, treated with the active ingredient, solved in DMSO and diluted with water to the desired dosages, are placed on sterile agar plates (1% agar in water). Covered plates are incubated at 7.5° C. in the dark. Controls are performed in the same conditions in the absence of the active ingredient. Assessment consisted of counting germinated seeds per plate at different time points.

[3] = test system: Soybean plants; test: Greenhouse experiment on soybean inoculated with Bradyrhizobium japonicum; type: in vivo
Description: Test is performed under greenhouse conditions. The experiment was conducted at a constant air temperature of 25° C. (day) and 20° C. (night) and 65% relative humidity. Plants were regularly watered with ½ strength Nitrogen free Hoagland's solution (Hoagland and Arnon, 1950) as needed.
Initial culture of Bradyrhizobium japonicum was prepared by inoculating single cell colonies from petri plates in 200 mL Yeast Extract Mannithol (YEM) broth (pH 6.8) and incubated at 28° C. and shaken at 150 rpm until an OD600 of 0.2-0.3 is achieved (2-3 days). Absorbance (A600 nm) of the bacterial cultures was determined using a spectrophotometer. The culture was diluted to an OD600 of 0.08 and 1 mL of this culture was used for inoculation onto seeds of all treatments.
Soybean seeds were surface sterilized in 2% sodium hypochlorite for 3 min and then rinsed several times with distilled water (Bhuvaneswari et al. 1980). Seeds were directly sown in pots (130 mm diameter) containing a mixture of sand and turface (2:1, v/v). Five soybean seeds were put in each. Before sowing seeds were soaked in solution containing the active ingredient at the desired concentration for at least two hours. Bradyrhizobium japonicum inoculant prepared as described above was inoculated onto soybean seeds by pipetting 1 mL of diluted culture onto each seed. The seeds were covered gently with the potting mixture, kept on the growth bench. After monitoring emergence, seedlings were thinned to one seedling per pot.
The plants were allowed to grow for 45 days after seeding and were then harvested for final data collection. Data were collected on the following variables: • 1. SPAD meter readings (leaf greenness measurements (chlorophyll content); SPAD-502 Chlorophyll Meter (Konica Minolta Sensing Inc., Japan) • 2. Number of nodules per plant • 3. Nodule dry weight

[4] = test system: Maize plants; test: Greenhouse experiment on maize (SPAD chlorophyll reading); type: in vivo; settings: seeds soaked, 0.1 mg/ha, 45 days after seeding, average of 4 replicates
Description: Test is performed under greenhouse conditions. Plants were grown in pots on a growth bench in the greenhouse at constant air temperature of 25° C. (day) and 20° C. (night) and 65% relative humidity. Plants were regularly watered with ½ strength Hoagland's solution containing nitrogen (Hoagland and Arnon, 1950) as needed. Maize seeds were carefully surface sterilized in 2% sodium hypochlorite for 3 min. followed by several rinsing with sterile distilled water (Bhuvaneswari et al. 1980). Seeds were directly sown in pots ([…]) containing a mixture of sand and turface (2:1, v/v) (2.5 L in each pot. Five seeds were put in each pot. The seeds were covered gently with the potting mixture and kept on the growth bench. After counting emergence, seedlings were thinned to one seedling per pot. Before sowing, seeds were soaked in solution containing the active ingredient at the desired concentration for at least two hours. The plants were allowed to grow for 45 days after seeding and were then harvested for final data collection. Data were collected on the SPAD meter readings (leaf greenness measurements (chlorophyll content); SPAD-502 Chlorophyll Meter (Konica Minolta Sensing Inc., Japan)

[5] = test system: AMF spores; test: Arbuscular mycorrhizal fungi (AMF) spore germination experiment; type: cell-based; settings: 10^−8M in M-medium, 26.5° C. dark, average of 3 replicates
Description: Test is performed under lab conditions. The active ingredient was solved in a solvent (acetone) and added to warm culture medium (M-medium; Bécard et Fortin, 1988) to obtain a final concentration of 10^−8M. After filling the culture medium in 24-well plates, AMF spores were deposited on the surface of culture medium. Plates were incubated at 26.5° C. in the dark. Assessment consisted of counting of germinated spores 3 and 4 days after application (daa).

[6] = test system: Glomus intraradices / Medicago truncatula plantlets; test: In vitro phosphate (33P) transport to host plant by mycorrhizal fungi; type: in vivo; settings: 96 hours after addition of 33P, average of 4 replicates
Description: One-week-old Medicago truncatula plantlets were transferred in the AM-P in vitro culture systems (details on AM-P systems see: H. Dupré Boulois et al., 2006). The roots were placed in the root compartment (RC) on the surface of the solid MSR medium (Declerck et al., 2003) lacking vitamins and sucrose. The RC was filled with 25 ml and the hyphal compartment (HC) with 20 ml of solid MSR medium, lacking sucrose, vitamins and solidified with 3 g l^−1 Phytagel.
Roots of M. truncatula plantlets were subsequently inoculated with the spores (±100) of Glomus intraradices. The bi-compartmented Petri plates of the AM-P in vitro culture systems were then sealed using Parafilm (Pechiney, Menasha, Wis., USA) and wrapped in black plastic bags to maintain roots and the G. intraradices in the dark. The AM-P in vitro culture systems were subsequently incubated in a controlled environment chamber (20° C., 16 h photoperiod). The AMP in vitro culture systems were supplied weekly with 5 ml of MSR medium up to 2 weeks before radio-isotopic labelling (10 weeks after inoculation).
Three weeks after inoculation, AM fungal mycelium started to contact the roots and to develop in the entire volume of the RCs. Between week 5 and 7, the mycelium crossed the partition wall between the RCs and HCs and started to develop in the HCs. The roots that crossed the plastic barrier were trimmed to leave the HC void of roots. Eight weeks after inoculation, the medium contained in the HCs was removed and then replaced by fresh MSR medium, lacking sucrose, vitamins and solidified with 3 g l^−1 Phytagel. In this medium, the active ingredient at the desired concentrations (in 0.1% acetone) was also added. The mycelium started immediately to re-grow into the fresh medium containing the active ingredient. At time of labeling, the mycelium in the HCs was 2 weeks-old.
Ten weeks after beginning of the experiment (i.e. 2 weeks after initiation of hyphal development in the HCs containing the active ingredient), filter-sterilized (Acrodisc® Syringe Filters, PALL Corporation, Ann Arbor, Mich., USA) phosphorus (^33P) was added in the HCs (489520+/−12080 CPM per systems). The source of ^33P was orthophosphate in dilute hydrochloric acid (<0.1 M) supplied by Amersham Pharmacia Biotech (Buckinghamshire, UK). A control treatment was included. Four replicates were considered per treatment.
At the end of the experiment (i.e. 96 hours after the addition of ^33P), the shoots of M. truncatula were collected by cutting the shoots at the level of the solidified MSR medium contained in the RCs. The roots were then removed from the solidified MSR medium and cleaned-free from the remaining gel and extraradical mycelium. Root and shoots were oven dried (60° until constant weight) and weighted. […]

[7] = test system: Wheat seeds; test: Germination test on wheat seeds; type: in vivo; settings: agar plates, 7.5° C. dark, 5 replicates of 20 seeds
Description: as §1

[8] = test system: maize roots inoculated with arbuscular mycorrhizal fungi; test: Greenhouse experiment on maize under low phosphate conditions (mycorrhization of roots); type: in vivo; settings: maize seed treatment 0.1 mg/ha, AMF inoculum, low phosphate (20 μM), 6 weeks greenhouse, trypan blue staining
Description: Test is performed in the greenhouse. 5 maize seeds per treatment were sown in 500 ml rose pots (7×7×18 cm) containing a mix of sand and perlite (1:1). 3 replicates were made. The active ingredient was solved in a DMSO and seed treatment was performed with lab equipment. To inoculate with arbuscular mycorrhizal fungi, 8 ml inoculum (AMykor GmbH; Germany) were mixed with 1 l of the sand-perlite mixture. Seeds were covered by 3 cm of LECA (light expanded clay aggregate). Pots were incubated in the greenhouse for 6 weeks at 21.5° C./14° C. (day/night) and 80% relative humidity. Once a week plants were watered with nutrient solution (half concentrated Hoagland solution (Hoagland and Arnon, 1950)) containing only a low concentration of phosphate (20 μM). Assessment consisted of mycorrhization of roots. Mycorrhization was evaluated after trypan blue staining by microscopy. Controls are performed in the same conditions in the absence of the active ingredient.

[9] = test system: Spring wheat; test: Spring wheat field trial (2010); type: in vivo; settings: seed treatment of spring wheat, result in words
Description: Maize and wheat field trials were conducted in order to evaluate several assessments including the weight of plant (leaf+roots), the formation of mycorrhiza, and yield parameters like the weight of grains per plot in tons per ha and the 1000 kernel weight. In addition to the tested compounds, a basic treatment of fungicides was also applied on the seeds. The tested active ingredients were pre-diluted in DMSO and applied on seeds in tank mix with fungicides. Spring wheat: Germany (Monheim), soil description: sandy loam, phosphor 11 mg/100 g soil, potassium 14 mg/100 g soil, magnesium 8 mg/100 g soil, organic matter 1.2%, pH 6.4. Sowing date: 2010-04-01 In both crops no phosphate or potassium fertilizer were applied. Compound A1: 0.1 and 1 milligrams active ingredient per hectare Base: Fungicide: Fluoxastrobin+Prothioconazole+Tebuconazole FS 80/Dosage: 5.6+5.6+0.747 grams active ingredient per 100 kg seeds. The following yield parameters were assessed: tons per hectare (for wheat only), TKW=1000 kernel weight. Mycorrhization of roots of spring wheat plants was assessed by trypan blue staining followed by microscopy.

[10] = test system: Maize seeds; test: Germination test on maize seeds; type: in vivo; settings: agar plates, 10° C. dark, 5 replicates of 20 seeds
Description: as §1

[11] = soybean, seeds soaked, 0.1 mg/ha, 45 days after seeding, average of 4 replicates

| Compound | Arabidopsis root length [1] | Soybean Germination rate 7 daa ([2]; seed treatment 0.1 mg/ha) | Soybean Germination rate 7 daa ([2]; seed treatment 1 mg/ha) | biomass (root and shoot) ([3]; soybean seeds treated, greenhouse, comparatively to the control, figures not given) | Nodule weight (dry) [3, 11] | Number of nodules [3, 11] | SPAD [3, 11] | SPAD [4] | Germination rate 3 daa ([5]; 3 days after application) | Germination rate 4 daa ([5]; 4 days after application) | ^33P counting root ([6]; 10^−6 M in hyphal compartment) | ^33P counting shoot ([6]; 10^−6 M in hyphal compartment) | ^33P counting root ([6]; 10^−7 M in hyphal compartment) | ^33P counting shoot ([6]; 10^−7 M in hyphal compartment) | Wheat Germination rate 3 daa ([7]; seed treatment 0.1 mg/ha) | Wheat Germination rate 3 daa ([7]; seed treatment 1 mg/ha) | Mycorrhization [8] | yield [9] | Maize Germination rate 6 daa ([10]; seed treatment 0.1 mg/ha) | Maize Germination rate 6 daa ([10]; seed treatment 1 mg/ha) |
| --- | --- | --- | --- | --- | --- | --- | --- | --- | --- | --- | --- | --- | --- | --- | --- | --- | --- | --- | --- | --- |
| CCCCCC(=O)NC1CCOC1=O (centres unmarked) [N-hexanoyl-d1-homoserine-lactone] | small increase | – | – | – | – | – | – | – | – | – | – | – | – | – | – | – | – | – | – | – |
| CCCCCC(=O)CC(=O)NC1CCOC1=O (centres unmarked) [Compound A1] | – | 77% | 84% | increase of biomass (root and shoot) | 0.180 g | 84 | 34 | 42 | 58% | 78% | 121485.7 | 61277.6 | 111374.4 | 70473.9 | 52% | 69% | 4.3% | significative yield increase | 95% | 94% |
